Measured values taken from patent US12564641B2 (EISAI R&D MANAGEMENT CO., LTD., priority 2019, dated 2026).
Entries after “also recorded” stand apart in the source; their conditions may differ. Where two headings read alike, the source gives them in different places.

How the values were obtained:
[1] = target: mesothelin (Homo sapiens, UniProt Q13421); experiment: Surface plasmon resonance (BIAcore) binding analysis of anti-mesothelin antibodies; details: Table 15; rabbit-human chimeric antibodies, individual curves
Sequence of mesothelin (Q13421 with tags, fused parts or gaps): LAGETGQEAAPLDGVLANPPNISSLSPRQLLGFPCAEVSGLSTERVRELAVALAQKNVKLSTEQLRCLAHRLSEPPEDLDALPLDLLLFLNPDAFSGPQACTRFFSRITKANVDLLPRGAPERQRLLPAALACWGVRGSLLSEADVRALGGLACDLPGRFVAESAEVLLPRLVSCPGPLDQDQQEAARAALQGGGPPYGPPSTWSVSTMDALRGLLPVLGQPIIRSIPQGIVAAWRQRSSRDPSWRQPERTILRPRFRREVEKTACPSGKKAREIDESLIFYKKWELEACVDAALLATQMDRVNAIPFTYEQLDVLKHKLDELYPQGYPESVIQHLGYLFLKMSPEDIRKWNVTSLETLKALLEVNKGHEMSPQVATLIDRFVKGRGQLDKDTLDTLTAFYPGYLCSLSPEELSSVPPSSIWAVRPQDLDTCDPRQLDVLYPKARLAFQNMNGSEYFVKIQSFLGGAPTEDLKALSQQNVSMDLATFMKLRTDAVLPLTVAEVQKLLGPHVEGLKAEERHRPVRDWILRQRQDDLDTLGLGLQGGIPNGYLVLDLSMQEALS
Description: Anti-mesothelin antibody binding affinity to mesothelin was measured by BIAcore (BIAcore T-100, GE healthcare, #1426075), using a series S CM5 chip. Antibody concentrations were adjusted to 1 μg/mL and mesothelin (50 μg) to 100 nM in 1×HBS-P+ buffer (GE Healthcare). Anti-human antibody capture chip was prepared according to the manufacturer's protocol using a CM5 chip with immobilization wizard. Final capture antibody levels were 8000-9000 RU, in HBS-P+. Chip was prepared for assay with five cycles of 300 sec buffer injection followed by 30 sec regeneration, all at 30 μL/min across all four flow cells. Antibodies were captured on flow cells 2-4 by sequential injections of individual ligand solutions for 90 sec at 10 μL/min. Analyte injection was done in a single-cycle kinetics manner by sequential injections of analyte solutions from low to high concentration for 240 sec each at 30 μL/min. Detection was 2-1, 3-1, 4-1. Double-referencing was performed by a sequence of identical ligand capture injections, followed by 5 buffer-only injections for 240 sec each, dissociation for 1800 sec, and regeneration as above. All ligands were analyzed for binding to mesothelin in duplicate. Kinetic analysis was performed using BIAEvaluations software using a 1:1 Langmuir fitting model. On-rate, off-rate, and affinity constants were averaged from duplicate runs.

[2] = tested on: human mesothelioma HAY xenograft; experiment: Human mesothelioma HAY xenograft model (Example 16); format: in vivo, mouse; details: 5 mg/kg
Description: (§1) 100 μL/mouse of the mixture was injected subcutaneously.

[3] = tested on: human gastric cancer NCI-N87 xenograft; experiment: Human gastric cancer NCI-N87 xenograft model (Example 15); format: in vivo, mouse; details: 5 mg/kg
Description: as §1

[4] = tested on: human NSCLC PDX LXFA-586; experiment: Human NSCLC PDX model LXFA-586; details: 25 mg/kg single dose i.v.
Excerpt: (§2) Animals: Female NMRI nu/nu mice, 4 to 6 weeks of age.
Xenotransplantation: LXFA-586 established growing tumor (T2N1M0) from a primary non-small cell lung adenocarcinoma human patient.
(§3) Experimental procedure: Animals were monitored until the tumor implants reached the study volume criteria of 50-250 mm^3 (e.g., 80-200 mmi) in a sufficient number of animals. […] The process of the assignment to groups (enrollment, stratified randomization) may also be referred to as randomization. The day of randomization was designated as day 0 of the experiment.
(§4) Tumors were measured and mice were weighed twice a week during the experimental period. The first day of dosing was day 1, one day after randomization (day 0).

[5] = tested on: MSLN-expressing CHO cells; experiment: ADCC activity, luciferase assay with Jurkat-Effector cells; format: cell-based
Description: MSLN-expressing CHO cells were thawed and seeded 1.000 cells/well (25 μL) in 96-well tissue culture plates in complete RPMI-4% Ultralow IgG FBS. […] 6,000 Jurkat-Effector cells (Promega) were thawed and added (25 μL) to the cell plate, and the plate was incubated at 37° C. 5% CO2 for 18-22 hours.
Luciferase assay reagent was thawed in the dark. 75 μL of luciferase assay reagent was added to each well, plates were shaken for 30 sec on a plate shaker. Plates were read on a luminometer after 5 min incubation.

[6] = tested on: MSLN-negative cell lines; experiment: In vitro cytotoxicity (IC50, Crystal Violet) on MSLN-negative cell lines (Example 11); format: cell-based; details: for IC50: read-out: In vitro cell based potency, IC50
Description: Plates were incubated at 37° C. 5% CO2 for an additional 5 days. […] Plates were read at 570 nm.

[7] = tested on: MSLN-positive cell lines; experiment: In vitro cytotoxicity (IC50, Crystal Violet) on MSLN-positive cell lines (Example 11); details: for IC50: read-out: In vitro cell based potency, IC50
Description: Cytotoxicity: Cells were sub-cultured and seeded at 5,000 cells/well in complete growth medium in 96-well tissue culture plates, and incubated at 37° C., 5% CO2 overnight (16 hours). Test reagents were serially diluted 1:3 in 2 mL deep-well dilution plates, starting at 200 nM (10 dilutions total). Diluted samples (100 μL) were added to the cell plates (starting concentration of test samples at 100 nM). Plates were incubated at 37° C. 5% CO2 for an additional 5 days. Medium was then discarded, and plates were washed once with 200 μL DPBS, stained with 50 μL of 0.2% Crystal Violet solution at room temperature for 15 min, and then washed extensively with tap water. Plates were air-dried, and Crystal Violet was dissolved with 200 μL of 1% SDS solution. Plates were read at 570 nm. Data was analyzed for IC50 determination using GraphPad Prism 6.

[8] = tested on: human mesothelioma PDX Meso7212; experiment: Human mesothelioma PDX model Meso7212 (Example 17); format: in vivo, mouse; details: 10 mg/kg single dose i.v.
Description: Xenotransplantation: On day 0. Meso 7212 tumors were removed from the five donor mice under sterile conditions.
Experimental procedure: After the xenotransplantation, the engraftment and the propagation of the tumor in the mice were controlled at least twice weekly by palpation. When the tumor was palpable, the measurements of tumor diameters were performed with a digital caliper (Mitutoyo).
From the first treatment day onwards, tumor volumes and body weights were recorded twice weekly. The animal welfare was controlled twice daily.
Treatment: All agents were administered intravenously as a single dose on the day of randomization. Animals in the control group were treated with DPBS in the same manner.

[9] = tested on: human NSCLC PDX LXFL-529; experiment: Human NSCLC PDX model LXFL-529; details: 12.5 mg/kg i.v.
Excerpt: as §2
Xenotransplantation: LXFL-529 established growing tumor (T3N1M0) from a primary non-small cell lung adenocarcinoma human patient.
as §3, with “mm^3)” for “mmi)”
as §4

[10] = SEC-HPLC aggregation analysis; format: physicochemical; details: Table 21, humanized 345A12
Description: SEC-HPLC analysis was conducted using Agilent 1200 HPLC system.
Aggregation of LCcys80 ADCs was analyzed by size-exclusion, high-performance liquid chromatography (SEC-HPLC) using an Agilent 1200 HPLC. Antibodies and ADCs were prepared at 2 mg/mL in 1×DPBS, 8 μL (16 μg) of each sample was injected and run for 36 min. All data were analyzed using Agilent ChemStation software. Percent aggregation, percent monomer, and percent fragmentation were reported.

[11] = target: T1, rat mesothelin (Rattus norvegicus, UniProt Q9ERA7); experiment: BIAcore binding affinity, rat mesothelin (Example 10)
T1 sequence (Q9ERA7 36-600): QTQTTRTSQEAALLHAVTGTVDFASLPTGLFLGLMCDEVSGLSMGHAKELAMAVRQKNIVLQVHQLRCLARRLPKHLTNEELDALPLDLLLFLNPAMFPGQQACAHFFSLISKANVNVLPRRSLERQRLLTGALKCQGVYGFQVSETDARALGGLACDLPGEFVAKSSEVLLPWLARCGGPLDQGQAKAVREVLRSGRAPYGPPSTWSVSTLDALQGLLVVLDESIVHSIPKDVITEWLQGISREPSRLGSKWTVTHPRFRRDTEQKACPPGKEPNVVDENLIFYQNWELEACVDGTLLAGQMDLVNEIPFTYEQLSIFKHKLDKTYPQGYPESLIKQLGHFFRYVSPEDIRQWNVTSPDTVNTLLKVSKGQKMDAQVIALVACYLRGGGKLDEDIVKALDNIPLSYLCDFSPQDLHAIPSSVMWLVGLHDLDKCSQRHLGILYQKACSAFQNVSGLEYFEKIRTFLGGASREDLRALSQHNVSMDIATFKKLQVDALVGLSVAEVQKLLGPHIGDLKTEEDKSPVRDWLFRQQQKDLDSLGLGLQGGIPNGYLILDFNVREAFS
Description: (§5) Binding affinity: Binding measurements were performed in HBS-P+ buffer on a BIAcore T-100 instrument. Antibodies were diluted to 1 μg/mL in HBS-P+. Samples were centrifuged at 14,000×g for 5 min at room temperature and then supernatants were transferred to a new 1.5 mL BIAcore tube and capped. Mesothelin (50 μg) was diluted to 100 nM in 1×HBS-P+ buffer, then serial diluted 5-fold at 100, 20, 4, 0.8, and 0.16 nM in BIAcore tubes and capped. Anti-human antibody capture chip was prepared according to the manufacturer's protocol using a CM5 chip with immobilization wizard. Final capture antibody levels were 8000-9000RU, in HBS-P+. Chip was prepared for assay with five cycles of 300 sec buffer injection followed by 30 sec regeneration, all at 30 μL/min across all four flow cells.
(§6) Antibodies were captured on flow cells 2-4 by sequential injections of individual ligand solutions for 90 sec at 10 μL/min. Analyte injection was done in a single-cycle kinetics manner by sequential injections of analyte solutions from low to high concentration for 240 sec each at 30 μL/min. Detection was 2-1, 3-1, 4-1. Double-referencing was performed by a sequence of identical ligand capture injections, followed by 5 buffer-only injections for 240 sec each, dissociation for 1800 sec, and regeneration as above. All ligands were analyzed for binding to mesothelin in duplicate. […]

[12] = tested on: cynomolgus monkey mesothelin; experiment: BIAcore binding affinity, cynomolgus monkey mesothelin (Example 10)
Description: as §5, §6

[13] = Concentration of purified humanized 345A12 antibodies to 5 mg/mL; format: physicochemical; details: purified antibody in 1×DPBS
Description: The super-humanized 345A12 antibodies were purified from 350 mL of scale-up cell culture and formulated in 1×DPBS. The antibodies were concentrated for physical-chemical property evaluation.

[14] = Capillary isoelectric focusing (cIEF) analysis; format: physicochemical
Description: Auto-sampler reagents were filled according to the CFR installation and start-up procedures. Hemoglobin was used as system stability standard. Default settings for batch data analysis was used. Focus period #1 was performed for 1 min at 1,500 V for both the system suitability standards and samples. Focus period #2 was performed for 5 min at 3,000 V for the system suitability standards and 11 min at 3,000 V for the TIGC samples and matched buffer controls. Duplicate TIGC samples used Focus period #2 at 4.5 min and all samples were bracketed with a system suitability standard. Samples were automatically integrated using a peak width parameter of 0.1 and threshold of 5 and integrated between pI 7.5-9.4.

[15] = Table 34: BAY 94-9343 and anetumab, MSLN-expressing CHO cells, Jurkat-Effector cells
[16] = NCI-H292 cells (MSLN MFI 108.6)
[17] = NCI-H1568/MSLN cells (MSLN MFI 4474.00)
[18] = OVCAR3-A1 cells (MSLN MFI 220.0)

Row | binding to rat mesothelin [11] | binding to cynomolgus monkey mesothelin [12] | Compound | ADCC activity [5, 15] [%] | % Max Killing ([6]; A431 cells (MSLN MFI 5.6)) [%] | IC50 ([6]; A431 cells (MSLN MFI 5.6)) [nM] | % Max Killing ([6]; BxPC3 cells (MSLN MFI 15.59)) [%] | IC50 ([6]; BxPC3 cells (MSLN MFI 15.59)) [nM] | % Max Killing ([6]; SKOV3 cells (MSLN MFI 20)) [%] | IC50 ([6]; SKOV3 cells (MSLN MFI 20)) [nM] | % Max Killing [7, 16] [%] | % Max Killing [7, 17] [%] | % Max Killing [7, 18] [%] | IC50 [7, 16] [nM] | IC50 [7, 17] [nM] | IC50 [7, 18] [nM] | also measured
1 | Nether antibody bound | retained binding affinity | 345A12-HC15-LC4: anti-mesothelin antibody, heavy chain SEQ ID NO: 17, light chain SEQ ID NO: 18; antibody in MORAb-109 | – | – | – | – | – | – | – | – | – | – | – | – | – | Aggregation % Monomer [10]: 86.56%; Concentration to 5 mg/mL [13]: Yes; % Acidic Peaks [14]: 34.787%; % Basic Peaks [14]: 14.424%; % Neutral Peak [14]: 50.790%; pI [14]: 8.25
2 | Nether antibody bound | did not bind | anetumab: a human anti-mesothelin antibody | 100 | 18.58 | > 300 | 25.73 | > 300 | 31.55 | > 300 | 15.15 | 5.50 | 19.80 | > 300 | > 100 | > 100 | –

Continued, compound first:

Row | Compound | binding to rat mesothelin [11] | binding to cynomolgus monkey mesothelin [12] | ADCC activity [5, 15] [%] | % Max Killing ([6]; A431 cells (MSLN MFI 5.6)) [%] | IC50 ([6]; A431 cells (MSLN MFI 5.6)) [nM] | % Max Killing ([6]; BxPC3 cells (MSLN MFI 15.59)) [%] | IC50 ([6]; BxPC3 cells (MSLN MFI 15.59)) [nM] | % Max Killing ([6]; SKOV3 cells (MSLN MFI 20)) [%] | IC50 ([6]; SKOV3 cells (MSLN MFI 20)) [nM] | % Max Killing [7, 16] [%] | % Max Killing [7, 17] [%] | % Max Killing [7, 18] [%] | IC50 [7, 16] [nM] | IC50 [7, 17] [nM] | IC50 [7, 18] [nM] | also measured
3 | MORAb-009: known anti-mesothelin antibody, MORAb-009 (Amatuximab) | – | – | – | – | – | – | – | – | – | – | – | – | – | – | – | Kd [1]: 0.15 nM; ka [1]: 1.95e+06 M⁻¹ s⁻¹; kd [1]: 0.000292 s⁻¹
4 | BAY 94-9343: ADC comprising anetumab conjugated to the maytansinoid tubulin inhibitor DM4 via a reducible SPDB linker | – | – | 65.06 | 96.82 | 5.31 | 97.33 | 2.53 | 74.99 | 0.81 | 64.15 | 75.10 | 100.00 | 3.07 | 0.15 | 0.41 | body weight change [2]: No body weight loss; body weight change [3]: No body weight loss; Tq (tumor volume quadrupling time) [4]: not reached; anti-tumor efficacy [4]: robust anti-tumor efficacy similar to MORAb-109; ADCC activity [5]: weaker ADCC activity than anetumab; cytotoxicity on MSLN-negative cell lines [6]: killing on both MSLN-positive and MSLN-negative cell lines; also recorded: relatively high levels of cytotoxicity; cytotoxicity on MSLN-positive cell lines [7]: killing on both MSLN-positive and MSLN-negative cell lines; anti-tumor effect [8]: tumor regression; body weight change [8]: No body weight loss; anti-tumor efficacy [9]: no anti-tumor efficacy
5 | COc1cc2cc(c1Cl)N(C)C(=O)C[C@H](OC(=O)[C@H](C)N(C)C(=O)CCC(C)(C)S)[C@]1(C)O[C@H]1[C@H](C)[C@@H]1C[C@@](O)(NC(=O)O1)[C@H](OC)/C=C/C=C(\C)C2 [DM4] | – | – | – | 92.52 | 0.71 | 97.98 | 0.57 | 81.89 | 0.28 | 92.40 | 77.49 | 100.00 | 0.24 | 0.57 | 0.1 | –
